From patent US20240041899A1, “SOLID PREPARATION” (ASKA Pharmaceutical Co., Ltd., priority 2020, published 2024)

How the values were obtained:
Assay type in all cases: in vivo
[1] = system: lower urinary tract obstruction model of rats (female); test: Test Example 1: urination function in lower urinary tract obstruction model of female rats; conditions: oral once a day 2 weeks, Compound B 3 mg/kg and 10 mg/kg
Description: A lower urinary tract obstruction model of rats was used as a test system. A test substance was orally administered to the lower urinary tract obstruction model repeatedly over two (2) weeks to examine the action on the urination function in the lower urinary tract obstruction model.
More specifically, the rats (female, Crl:CD(SD), 8-week-old; Charles River Laboratories Japan, Inc.) were operated to form lower urinary tract obstruction and repeatedly received oral administration of the test substance at a frequency of once a day over two (2) weeks. After the completion of the administration, each rat was subjected to bladder catheterization under anesthesia, cystometry under no anesthesia, then cystometry under urethane anesthesia, and euthanasia under deep anesthesia, and the tissues (bladder, kidney) of the rat were extracted or surgically removed. As a normal group, the rats without operation for forming lower urinary tract obstruction were used.
The test system, the test substances, and the dosage are as follows. • Normal group: 0.5 v/v % Polysorbate 80 solution, 10 mL/kg (n=6) • Solvent group (control group): 0.5 v/v % Polysorbate 80 solution, 10 mL/kg (n=15) • Group A: Compound A, 10 mg/kg (n=15) • Group B3: Compound B, 3 mg/kg (n=7) • Group B10: Compound B, 10 mg/kg (n=7)
After urination, the residual urine was aspirated from the outlet end of the catheter placed in the bladder to measure the volume (mL) of the residual urine.
After urination, the weight of the voided urine was measured to determine the voided volume (g=mL), and then the urination efficiency was calculated by the following equation: Urination efficiency (%)=[(Voided volume (mL))/(Voided volume (mL)+Residual urine volume (mL))]×100
Bladder capacity (mL)=Voided volume (mL)+Residual urine volume (mL)
Moreover, the wet weight of the extracted bladder and that of the extracted kidney were measured.

[2] = system: rats having the urination disorder associated with diabetes; test: Test Example 6: urination disorder model associated with streptozocin-induced diabetes, compound A versus compound C; conditions: STZ diabetes model
Procedure: As described below, a model of a urination disorder associated with streptozocin-induced diabetes was prepared as a urination disorder model in accordance with Test Example 4 to evaluate the effects of the compound A and the compound C on a urination disorder. This model has no benign prostatic hyperplasia and is a model of a urination disorder associated with neuropathy and smooth muscle contraction disorder.
The body weights of Rats (male, Crl:CD(SD), 5-week-old; Charles River Laboratories Japan, Inc.) were measured. On the basis of the body weight, the rats were grouped or divided into two (2) groups. The day after the rats were grouped, a first group received intraperitoneal administration of a citrate buffer (pH 4.5) (10 mL/kg) having a concentration of 0.1 mmol/L, and a second group received intraperitoneal administration of streptozocin (STZ; Sigma-Aldrich) (50 mg/kg). Streptozocin (STZ) was administered in the form of a solution of streptozocin having a concentration of 5 mg/mL in the citrate buffer.
About one (1) week after streptozocin (STZ) was administered, the body weight and the fasting blood glucose were measured. In the streptozocin (STZ) administration group (the second group), individuals having a fasting blood glucose level of not less than 300 mg/dL were used as animals with induced diabetes. These animals with induced diabetes are a model having no abnormality of the prostate (having no benign prostatic hyperplasia). On the basis of the body weight and the fasting blood glucose level, the animals (models) with induced diabetes were grouped or divided into three (3) groups by randomized, multivariable block allocation.
To the three model groups with induced diabetes, a 0.5 v/v % Polysorbate 80 solution (0.5% P) (10 mL/kg), the compound A (3 mg/kg), and the compound C (dutasteride) (0.3 mg/kg) were orally administered, respectively, wherein the administration schedule in all groups was a frequency of once a day, only on weekdays, over four (4) weeks. Moreover, to the above-mentioned first group, a 0.5 v/v % Polysorbate 80 solution (0.5% P) (10 mL/kg) was orally administered in the same administration schedule (normal group). On the last day of administration, a cannula was inserted into and secured to the dome of the bladder under isoflurane anesthesia, and cystometry (Cystometogram, CMG) was conducted in the order of under awake condition and under urethane anesthesia to measure the intravesical pressure, the voided volume, and the residual urine volume. After the completion of the measurement, the blood was collected under deep isoflurane anesthesia, and then the prostate (ventral prostate, dorsolateral prostate) was extracted and each was weighed. Moreover, the blood glucose level in the collected blood was measured.
Normal group: citrate buffer 10 mL/kg (intraperitoneal administration), 0.5% P 10 mL/kg (oral administration) (n=10) • Solvent group (control group): STZ 50 mg/kg (intraperitoneal administration), 0.5% P 10 mL/kg (oral administration) (n=10) • Group A3: STZ 50 mg/kg (intraperitoneal administration), Compound A 3 mg/kg (oral administration) (n=10) • Group C0.3: STZ 50 mg/kg (intraperitoneal administration), Compound C (dutasteride) 0.3 mg/kg (oral administration) (n=10)
Urination parameter: In the same manner as in Test Example 4, the residual urine volume (mL) and the urination efficiency (%) were determined as urination parameters in each urination, and the average value of two measurements was taken as a measured value of each individual.
Prostate weight: In the same manner as in Test Example 4, the weight of the prostate (ventral prostate, dorsolateral prostate, and whole) was converted to a tissue weight per 100 g of the body weight. For Group A3, which received the compound A, and Group C0.3, which received the compound C, the inhibition rate of the weight of the prostate relative to the weight of the prostate in the solvent group was calculated (with one decimal place). […]

ovariectomized rats = test: Test Example 5: antiprogesterone activity, uterine weight associated with rat deciduoma formation; conditions: Rattus norvegicus, 192 h; ovariectomized rats, estrone + progesterone, oral 3 mg/kg once a day 8 days, compared with the solvent group; read-out: inhibition rate (increase of uterine weight, deciduoma formation)
Procedure: For the compound A and the compound D (mifepristone), the antiprogesterone activity was measured. Specifically, a sex hormone and a test substance were repeatedly administered to ovariectomized rats as a test system to examine the antiprogesterone action (antiprogesterone activity) based on, as an index, the fluctuation of the uterine weight (the inhibitory action relative to the increase of the weight) associated with rat deciduoma formation.
More specifically, rats (female, Crl:CD(SD), 5-week-old: Charles River Laboratories Japan, Inc.) were subjected to ovariectomy, and from one (1) week after the ovariectomy, a high dose estrone of 5 μg/one animal was hypodermically administered to the rats once a day for three (3) days. From the day after one day rest period, the rats received, once a day over eight (8) days, hypodermic administration of a low dose estrone (1 μg/one animal), intramuscular administration of progesterone (6 mg/kg), and oral administration of a test substance. In the middle of the administration, on Day 4 of the start of administration, the rats were subjected to a stimulation treatment of decidualization reaction to the right uterus. The day after the final administration, the uterine weight (right uterine body) was measured (n=6). Group E was subjected to ovariectomy and a stimulation treatment of decidualization reaction but was not subjected to a hormone treatment.
Group E: rats with ovariectomy without hormone treatment 0.5 v/v % Polysorbate 80 solution, 10 mL/kg (n=6) • Solvent group (control group): 0.5 v/v % Polysorbate 80 solution, 10 mL/kg (n=6) • Group A3: Compound A, 3 mg/kg (n=6) • Group A10: Compound A, 10 mg/kg (n=6) • Group A30: Compound A, 30 mg/kg (n=6) • Group D: Compound D (mifepristone), 3 mg/kg (n=6)

[3] = female rats, lower urinary tract obstruction, vs control group
[4] = Compound C 0.3 mg/kg, in comparison with the solvent group
[5] = Compound C oral 0.3 mg/kg, 4 weeks
[6] = Compound C oral 0.3 mg/kg, relative to solvent group

## CC(=O)O[C@]1(C(C)=O)CC[C@H]2[C@@H]3C=C(Cl)C4=CC(=O)OC[C@]4(C)[C@H]3CC[C@@]21C [Compound B, 17α-acetoxy-6-chloro-2-oxa-4,6-pregnadiene-3,20-dione, reference compound]
[1]; female lower urinary tract obstruction rats
  survival rate: decreased
[1]; female rats, lower urinary tract obstruction
  wet weights of the bladder and the kidney: rather in the direction of increasing
[1]; female rats, lower urinary tract obstruction, vs control (solvent) group
  residual urine volume: significantly increased
[1]; [3]
  bladder capacity: significantly increased
  urination efficiency: reduced

## C[C@]12C=CC(=O)N[C@@H]1CC[C@@H]1[C@@H]2CC[C@]2(C)[C@@H](C(=O)Nc3cc(C(F)(F)F)ccc3C(F)(F)F)CC[C@@H]12 [Compound C, dutasteride, reference compound]
[2]; Compound C 0.3 mg/kg
  position in nomogram analysis (bladder contraction force): at almost the same position as the solvent group
  therapeutic effect on diabetes: no therapeutic effect
[2]; Compound C 0.3 mg/kg, compared with the solvent group (P<0.05)
  weights of the ventral prostate, the dorsolateral prostate, and the whole prostate: significant decrease
[2]; [4]
  residual urine volume, cystometry (CMG) under awake condition: did not statistically affect
  urination efficiency, cystometry (CMG) under awake condition: did not statistically affect
[2]; Compound C 0.3 mg/kg, vs solvent group
  effect on the blood glucose level: did not statistically affect
[2]; Compound C (dutasteride) oral 0.3 mg/kg, 4 weeks
  Prostate weight, ventral prostate: 58.4 ± 8.4 mg/100 g body weight
[2]; [5]
  Blood glucose level: 984.2 ± 282.0 mg/dL
  Prostate weight, dorsolateral prostate: 40.5 ± 6.3 mg/100 g body weight
  Prostate weight, whole: 98.9 ± 12.2 mg/100 g body weight
[2]; [6]
  Dorsolateral prostate atrophy rate: (37.5%)
  Ventral prostate atrophy rate: (42.7%)
  Whole prostate atrophy rate: (40.7%)

## CC#C[C@]1(O)CC[C@H]2[C@@H]3CCC4=CC(=O)CCC4=C3[C@@H](c3ccc(N(C)C)cc3)C[C@@]21C [Compound D, mifepristone, reference compound]
Ovariectomized rats
  inhibition at 3 mg/kg: 89.5%
